What is called IC50 is the concentration at which inhibition is half-maximal.

Peptide text beside a SMILES is read from it.

Assay [1] deals with T1, AIP (Homo sapiens, UniProt O00170).
T1 sequence (O00170 1-330): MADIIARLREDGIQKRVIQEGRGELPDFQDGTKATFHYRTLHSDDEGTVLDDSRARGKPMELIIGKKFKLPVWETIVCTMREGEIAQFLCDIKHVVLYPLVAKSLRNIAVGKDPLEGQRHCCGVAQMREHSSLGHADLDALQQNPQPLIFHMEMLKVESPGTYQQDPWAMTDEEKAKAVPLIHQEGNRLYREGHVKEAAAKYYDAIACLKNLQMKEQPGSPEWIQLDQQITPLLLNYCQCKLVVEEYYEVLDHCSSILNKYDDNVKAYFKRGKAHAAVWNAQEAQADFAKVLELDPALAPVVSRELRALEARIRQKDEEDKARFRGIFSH
Kind of assay: Dot-blot competition assay: HRP-conjugated peptide vs unlabeled peptide on nitrocellulose-immobilized AIP.
Description: (§1) Full‐length cDNA clones for respective proteins were obtained from IMAGE consortium (SourceBioScience, Nottingham, UK) and PCR amplified with forward and reverse primers (Table 1) containing overhangs with appropriate restriction sites and cloned into pGEX6 vectors (GE Healthcare, Uppsala, Sweden). Inserts were sequence verified, and the plasmids were transformed into BL21 Escherichia coli strain. Glutathione‐S‐transferase (GST) fusion proteins were purified from 1 L overnight culture after 2 h of induction with 1 mM IPTG. Cells were pelleted, resuspended in 1× PBS and sonicated 3 × 20 s on ice. EDTA and protease inhibitor cocktail were added to prevent proteolysis. The suspension was centrifuged for 30 min at 50 000 g to remove cell debris, and supernatant was loaded onto a 1 mL GSTrap™ 4B column (GE Healthcare). After column washing with 30 mL PBS, GST fusion proteins were eluted with 2.5 mL 10 mM glutathione in PBS. Eluate was passed through a PD‐10 column (GE Healthcare) to remove free glutathione. To prepare GST‐tag‐free proteins, we performed overnight cleavage at 4 °C with PreScission protease (GE Healthcare) followed by passage through a GSTrap column to remove free GST protein. Average yield from 1 L starting culture was 1–5 mg of purified proteins. Protein‐containing fractions were collected, checked with SDS/PAGE and kept at −20 °C.
(§2) Peptides were dissolved in HEPES‐KOH buffer pH 7.2 at concentration of 1 mg·mL^−1 and incubated with equimolar amounts of activated horseradish peroxidase (HRP) (Lightning‐link® HRP labeling kit cat. 701‐004, from Innova Biosciences) for 5 min. Reaction was quenched with 0.1 M Tris/HCl, pH 7.5 for 10 min and the products were passed through PD‐10 columns (GE Healthcare). Dot‐blot experiments were performed using GST‐tag‐free proteins applied to the nitrocellulose membrane. After blocking of membrane with 3% BSA in TBS‐T buffer for 1 h and subsequent wash with TBS‐T, HRP‐conjugated peptides (1 × 500 times dilution) were applied and incubated for 1 h. After subsequent washing (3 × 10 min, TBS‐T), membrane was dried and signals were quantified using a digital Fujifilm LAS3000 imager and LAS3000 software. In competition experiments, increasing concentrations of unlabeled peptides were co‐incubated with peptide–HRP conjugates.
(§3) Each peptide was separately coupled to HRP.

Assay [2] addresses T2, FKBP51 (Homo sapiens, UniProt Q13451).
T2 sequence (Q13451 1-457): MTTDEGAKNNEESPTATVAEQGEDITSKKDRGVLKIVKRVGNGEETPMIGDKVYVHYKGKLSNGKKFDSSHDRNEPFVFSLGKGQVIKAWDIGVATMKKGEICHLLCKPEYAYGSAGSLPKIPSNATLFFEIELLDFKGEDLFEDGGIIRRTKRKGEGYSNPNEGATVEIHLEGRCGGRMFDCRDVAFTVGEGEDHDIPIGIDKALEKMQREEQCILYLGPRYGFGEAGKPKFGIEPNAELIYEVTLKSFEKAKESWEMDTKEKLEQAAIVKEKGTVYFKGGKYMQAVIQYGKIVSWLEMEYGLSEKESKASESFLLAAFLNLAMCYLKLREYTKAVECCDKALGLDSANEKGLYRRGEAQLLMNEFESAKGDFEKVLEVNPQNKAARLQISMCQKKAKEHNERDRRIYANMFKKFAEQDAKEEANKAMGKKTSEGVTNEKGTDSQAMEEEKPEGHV
Kind of assay: Dot-blot competition assay: HRP-conjugated peptide vs unlabeled peptide on immobilized FKBP51.
Description: as §1, §2, §3

The target of assay [3] is T3, FKBP51 (human, UniProt Q13451 1-457).
T3 construct: GST-tag-free protein spotted on nitrocellulose; also called immobilized FKBP51; source: E. coli BL21, purified as GST fusion (GSTrap), GST removed with PreScission protease
T3 sequence (looked up): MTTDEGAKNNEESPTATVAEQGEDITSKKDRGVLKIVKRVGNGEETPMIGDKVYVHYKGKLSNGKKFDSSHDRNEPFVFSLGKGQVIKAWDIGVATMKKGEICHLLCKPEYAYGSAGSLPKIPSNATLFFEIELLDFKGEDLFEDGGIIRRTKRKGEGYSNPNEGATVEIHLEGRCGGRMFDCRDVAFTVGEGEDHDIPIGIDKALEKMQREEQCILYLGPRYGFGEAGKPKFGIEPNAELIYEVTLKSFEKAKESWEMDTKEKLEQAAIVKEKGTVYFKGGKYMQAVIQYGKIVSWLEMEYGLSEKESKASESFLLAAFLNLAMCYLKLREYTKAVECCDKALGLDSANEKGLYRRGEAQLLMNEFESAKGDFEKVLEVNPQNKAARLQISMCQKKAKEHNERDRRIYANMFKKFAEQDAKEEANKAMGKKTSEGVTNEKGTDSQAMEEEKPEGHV
Kind of assay: far-Western, overlay or dot blot; GST-tag-free FKBP51 or AIP on nitrocellulose, blocked with 3% BSA in TBS-T, probed 1 h with HRP-conjugated peptide, alone or with increasing concentrations of unlabeled peptide; luminescence quantified; IC50 estimated; n = 3. Conditions: both partners purified.

Assay [4] concerns the target T4, AIP (human, UniProt O00170 1-330).
T4 construct: GST-tag-free protein spotted on nitrocellulose; also called nitrocellulose-immobilized AIP; source: E. coli BL21, purified as GST fusion (GSTrap), GST removed with PreScission protease
T4 sequence (looked up): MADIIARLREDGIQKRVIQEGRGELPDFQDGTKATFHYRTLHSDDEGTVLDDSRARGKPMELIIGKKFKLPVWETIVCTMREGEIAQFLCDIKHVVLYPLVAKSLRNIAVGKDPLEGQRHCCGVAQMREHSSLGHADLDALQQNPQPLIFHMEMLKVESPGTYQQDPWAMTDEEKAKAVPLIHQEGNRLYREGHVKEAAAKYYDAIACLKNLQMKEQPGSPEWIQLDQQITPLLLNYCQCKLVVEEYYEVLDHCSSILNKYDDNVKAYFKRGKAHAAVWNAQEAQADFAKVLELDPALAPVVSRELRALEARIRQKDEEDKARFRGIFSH
The description is as above. The settings on record: both partners purified.

As for `CSCC[C@H](NC(=O)[C@H](CC(N)=O)NC(=O)[C@@H](NC(=O)[C@H](CO)NC(=O)[C@H](CC(N)=O)NC(=O)[C@H](CCCCN)NC(=O)[C@@H](N)CCC(=O)O)C(C)C)C(=O)N[C@@H](CC(=O)O)C(=O)N[C@@H](CC(C)C)C(=O)N[C@@H](CC(=O)O)C(=O)O` [Hsp105] (H-EKNSVNMDLD-OH), the IC50 turned out to be 8.64 ± 0.8 µM at AIP [1] and 42.8 ± 4.16 µM on FKBP51 [2].
On the same counts, the results for `CC[C@H](C)[C@H](NC(=O)[C@@H](NC(=O)[C@@H]1CCCN1C(=O)CNC(=O)[C@H](CO)NC(=O)CN)[C@@H](C)O)C(=O)N[C@@H](CCC(=O)O)C(=O)N[C@@H](CCC(=O)O)C(=O)N[C@H](C(=O)N[C@@H](CC(=O)O)C(=O)O)C(C)C` [Hsp70.1] are 10.6 ± 1 µM and 27.6 ± 2.85 µM.
On the same counts, the results for `CSCC[C@H](NC(=O)[C@H](CC(N)=O)NC(=O)[C@H](CO)NC(=O)[C@H](Cc1ccc(O)cc1)NC(=O)[C@@H](NC(=O)[C@@H]1CCCN1)[C@@H](C)O)C(=O)N[C@@H](CCC(=O)O)C(=O)N[C@@H](CCC(=O)O)C(=O)N[C@H](C(=O)N[C@@H](CC(=O)O)C(=O)O)C(C)C` [Usp19] (H-PTYSNMEEVD-OH) are 18.8 ± 2.78 µM and 19.7 ± 2.55 µM.
The like results for `CC(C)C[C@H](NC(=O)[C@H](CC(=O)O)NC(=O)[C@H](Cc1ccc(O)cc1)NC(=O)[C@H](CC(C)C)NC(=O)[C@H](CC(C)C)NC(=O)[C@H](CO)NC(=O)[C@H](CC(N)=O)NC(=O)[C@H](CCC(N)=O)NC(=O)[C@@H](N)Cc1ccccc1)C(=O)N[C@@H](CC(=O)O)C(=O)O` [DNAAF2] (H-FQNSLLYDLD-OH) were, in that order, 8.47 ± 0.43 µM and 25.6 ± 1.54 µM.
With `CSCC[C@H](NC(=O)[C@H](CCCCN)NC(=O)[C@H](CCC(=O)O)NC(=O)[C@H](CC(=O)O)NC(=O)[C@H](CC(=O)O)NC(=O)[C@@H](N)CO)C(=O)N1CCC[C@H]1C(=O)N[C@@H](CC(=O)O)C(=O)N[C@@H](CC(C)C)C(=O)N[C@@H](CCC(=O)O)C(=O)O` [p23] (H-SDDEKMPDLE-OH), the figures for the IC50 on AIP [1] and on FKBP51 [2] were 55 ± 4.51 µM and 189 ± 12.9 µM, respectively.
The like results for `CC(C)C[C@H](NC(=O)[C@H](CO)NC(=O)[C@H](CCC(N)=O)NC(=O)[C@@H]1CCCN1C(=O)[C@H](CCC(=O)O)NC(=O)[C@H](C)N)C(=O)N[C@@H](CC(=O)O)C(=O)NCC(=O)N[C@H](C(=O)N[C@@H](CC(=O)O)C(=O)O)C(C)C` [NADSYN1] (H-AEPQSLDGVD-OH) were, in that order, 9.74 ± 0.72 µM and 28.2 ± 1.96 µM.

B1: DNAAF2 peptide (peptide)
peptide: FQNSLLYDLD
notes: the 10 C-terminal residues of DNAAF2; source: synthetic peptide (Peptide 2.0, Inc.), > 95% purity
Regarding B1, the IC50 with FKBP51 [3] is 25 µM; with AIP [4] it was 8 µM.

B2: Tom20 peptide (peptide)
peptide: AQSLAEDDVE
notes: the 10 C-terminal residues of Tom20; also called Tom20 label-free peptide; unlabeled Tom20 peptide; source: synthetic peptide (Peptide 2.0, Inc.), > 95% purity
With B2, the figures for the IC50 with FKBP51 [3] and in the assay with AIP [4] were 183 µM and 62 µM, respectively.

B3: p23 peptide (peptide)
peptide: SDDEKMPDLE
notes: the 10 C-terminal residues of p23 / PTGES3; also called p23 C-terminal peptide; source: synthetic peptide (Peptide 2.0, Inc.), > 95% purity
For the molecule B3, the half-maximal inhibitory concentration (IC50) with FKBP51 [3] was 291 µM; in the assay with AIP [4], 47 µM.

B4: Hsp105 peptide (peptide)
peptide: EKNSVNMDLD
notes: the 10 C-terminal residues of Hsp105; source: synthetic peptide (Peptide 2.0, Inc.), > 95% purity
On to B4, for which the concentration for half-maximal inhibition (IC50) was 40 µM with FKBP51 [3] and 6 µM in the assay with AIP [4].

B5: Usp19 peptide (peptide)
peptide: PTYSNMEEVD
notes: source: synthetic peptide (Peptide 2.0, Inc.), > 95% purity
Turning to B5, the IC50 with FKBP51 [3] was 19 µM; in the assay with AIP [4], 9 µM.

B6: NADSYN1 peptide (peptide)
peptide: AEPQSLDGVD
notes: the 10 C-terminal residues of NADSYN1; source: synthetic peptide (Peptide 2.0, Inc.), > 95% purity
Regarding B6, the IC50 with FKBP51 [3] was 28 µM; with AIP [4], 18 µM.

The values are drawn from paper PMC6212638, “In silico identification and biochemical characterization of the human dicarboxylate clamp TPR protein interaction network” (FEBS Open Bio, 2018).
